Measurements taken from patent US8012995B1, “Pharmaceutically active sulfonamide derivatives” (Merck Serono SA, priority 1999, dated 2011).

What was measured:
JNK2 = JNK2 (Homo sapiens, UniProt P45984); assay: JNK2 in vitro assay (SPA, GST-c-Jun phosphorylation); format: biochemical; details: amount necessary to achieve 50% inhibition, GST-c-Jun substrate
Description: (§1) JNK 2 and 3 in vitro assays: JNK3 and/or 2 assays are performed in 96 well MTT plates, by incubation of 0.5 μg of recombinant pre-activated GST-JNK or GST-JNK2 with 1 μg of recombinant, biotinylated GST-c-Jun and 2 μM ^33γ-ATP (2 nCi/μl), in the to presence or absence of sulfonamide inhibitors if formula I and in a reaction volume of 50 μl containing 50 mM Tris-HCl, pH 8.0; 10 mM MgCl2; 1 mM Dithiothreitol, and 100 μM NaVO4. The incubation is performed for 120 min. at R.T and stopped upon addition of 200 μl of a solution containing 250 μg of Streptavidine-coated SPA beads (Amersham, Inc.)^•, 5 mM EDTA, 0.1% Triton X-100 and 50 μM ATP, in phosphate saline buffer. After incubation for 60 minutes at RT, beads are sedimented by centrifugation at 1500×g for 5 minutes, resuspended in 200 μl of PBS containing 5 mM EDTA, 0.1% Triton X-100 and 50 μM ATP and the radioactivity measured in a scintillation β counter, following sedimentation of the beads as described above. By substituting GST-c Jun for biotinylated GST-1ATF2 or myelin basic protein, this assay can be used to measure inhibition of preactivated p38 and ERK MAP Kinases, respectively.
(§2) The values indicated in respect of JNK2 and 3, p38 and ERK2 refer to the IC50 (μM), i.e. the amount necessary to achieve 50% inhibition of said target (e.g. JNK2). From the above table it could be derived that said test compounds according to formula I do have a significant effect both on JNK2 and 3, but virtually no effect onto p38 and ERK2, thus delivering a quite selective inhibitory effect.

JNK3 = JNK3 (Homo sapiens, UniProt P53779); assay: JNK3 in vitro assay (SPA, GST-c-Jun phosphorylation); format: biochemical; details: amount necessary to achieve 50% inhibition, GST-c-Jun substrate
JNK3, sequence (P53779 whole entry, species assumed): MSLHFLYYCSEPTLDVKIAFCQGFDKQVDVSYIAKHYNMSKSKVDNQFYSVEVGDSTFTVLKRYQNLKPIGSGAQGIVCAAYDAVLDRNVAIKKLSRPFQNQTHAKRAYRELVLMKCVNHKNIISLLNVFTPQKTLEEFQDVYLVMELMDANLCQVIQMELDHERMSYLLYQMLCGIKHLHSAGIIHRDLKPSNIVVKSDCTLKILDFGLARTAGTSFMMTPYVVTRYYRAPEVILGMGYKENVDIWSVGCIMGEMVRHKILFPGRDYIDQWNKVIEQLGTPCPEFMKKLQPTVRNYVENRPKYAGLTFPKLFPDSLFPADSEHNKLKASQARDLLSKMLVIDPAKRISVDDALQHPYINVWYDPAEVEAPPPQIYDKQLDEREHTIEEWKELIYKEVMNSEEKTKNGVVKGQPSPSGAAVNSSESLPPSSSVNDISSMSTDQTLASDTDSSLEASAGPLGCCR
Description: as §1, §2

p38 = p38 (Homo sapiens, UniProt Q16539); assay: p38 in vitro kinase assay (SPA, GST-ATF2 substrate); format: biochemical; details: amount necessary to achieve 50% inhibition
p38, sequence (Q16539 whole entry): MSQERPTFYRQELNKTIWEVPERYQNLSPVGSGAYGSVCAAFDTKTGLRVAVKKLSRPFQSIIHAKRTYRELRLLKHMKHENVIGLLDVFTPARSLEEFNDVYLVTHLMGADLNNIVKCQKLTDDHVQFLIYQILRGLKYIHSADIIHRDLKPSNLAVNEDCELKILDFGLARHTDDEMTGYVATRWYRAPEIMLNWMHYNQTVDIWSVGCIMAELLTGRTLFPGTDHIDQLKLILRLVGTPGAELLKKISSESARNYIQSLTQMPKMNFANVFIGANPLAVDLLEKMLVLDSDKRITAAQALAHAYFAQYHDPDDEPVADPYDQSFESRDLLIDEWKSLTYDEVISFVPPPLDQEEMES
Description: as §1, §2

ERK2 = ERK2 (Homo sapiens, UniProt P28482); assay: ERK2 in vitro kinase assay (SPA, myelin basic protein substrate); format: biochemical; details: amount necessary to achieve 50% inhibition
ERK2, sequence (P28482 whole entry, species assumed): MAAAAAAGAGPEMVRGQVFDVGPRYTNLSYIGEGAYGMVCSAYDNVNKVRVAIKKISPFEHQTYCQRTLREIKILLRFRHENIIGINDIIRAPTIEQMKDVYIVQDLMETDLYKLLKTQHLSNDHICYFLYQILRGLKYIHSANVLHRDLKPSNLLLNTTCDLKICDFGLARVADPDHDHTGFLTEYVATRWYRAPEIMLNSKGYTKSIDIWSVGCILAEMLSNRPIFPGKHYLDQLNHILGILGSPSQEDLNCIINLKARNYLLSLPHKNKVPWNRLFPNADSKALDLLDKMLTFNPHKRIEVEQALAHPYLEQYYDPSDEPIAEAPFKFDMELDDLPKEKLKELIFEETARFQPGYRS
Description: as §1, §2

[1] = tested on: IL-2 release by PMA+Iono-stimulated Jurkat cells; assay: IL-2 release assay (ELISA); format: cell-based; details: Homo sapiens, PMA+Ionomycine-stimulated Jurkat cells, 24 hours, read-out: % Inhibition of IL2 Production @3 uM
Description: Jurkat cells, a human T cell leukemia cell line (American Type Culture Collection # TIB 152) were cultured in RPMI 1640 medium (Gibco, BRL) supplemented with 10% of […] FCS, Glutamine and Penstrep. The cell suspension in the medium is diluted to give 2.10^6 cells/mL. The cells were plated (2.10^5 cells/well) on a 96-well plate containing different concentration of test compound (final concentration of compounds, 10, 3, 1, […], 0.1 μM). This mixture is incubated 30 minutes at 37° C. in a humidified CO2 atmosphere. Cells were then treated with 10 ul PMA+Ionomycine (0.1 μM and 1 μM final concentration) in all wells except negative control. In wells without compounds, 10 μl of RPMI 2% DMSO (=0.1% final) is added. Cells are incubated 24 hours at 37° C. and then the supernatant harvested (freeze at −20° C. if not used the same day) prior to performing IL-2 ELISA test on the supernatant.
IL-2 release into the medium by PMA+Iono-stimulated Jurkat cells, in presence or absence of test compounds is assayed by ELISA. Following the procedure described below
Transfer 100 μl capture antibody diluted in PBS at 5 μg/mL into a 96 well ELISA plate and incubate overnight at room temperature.
Aspirate each well and wash 3 times with Wash buffer. After the last wash, damp the plate.
1. Saturate with 200 μl PBS-10% FCS. Incubate 1 hour at room temperature.
2. Repeat the wash step 2.
• 1. Add 100 μl of sample or standard ([…]) and incubate 2 hours at room temperature. • 2. Wash 3 times. • 3. Add 100 μl of biotinylated anti-human IL-2 at 12.5 ng/mL. Incubate 2 hours at room temperature. • 4. Wash 3 times. • 5. Add 100 μl streptavidin-HRP (Zymed #43-4323) at 1:10′000. Incubate 30 minutes at room temperature. • 6. Wash 3 times • 7. Add 100 μl substrate solution (citric acid/Na2HPO4 (1:1)+H2O2 1:2000+OPD). Incubate 20-30 minutes at room temperature. • 8. Add 50 μl of stop solution to each well. • 9. Determine optical density using a microliter plate reader set to 450 nm with correction at 570 nm.

Hlr c-Jun HeLa cells = assay: C-Jun reporter assay (Dual-Luciferase); format: cell-based; details: Homo sapiens, Hlr c-Jun HeLa cells transfected with pMEKK1
Description: Hlr c-Jun HeLa cells are cultured in DMEM High Glc supplemented with 10% FCS (Sigma), 2 mM Glutamine (Gibco), P/S, Hygromycin b 100 μg/mL and G418 250 μg/mL
The cell suspension are diluted with medium to give about 3.5×10^6 cells/mL and 1 mL of cell suspension are put onto 2 10 cm culture dishes containing 9 mL of culture medium.
• Control: 0.2 μg pTK Renilla, 5.8 μg pBluescript KS, 500 μl OPTIMEM (GIBCO), 18 μl Fugene 6 • Induced: 0.1 μg pMEKK1, 0.2 μg pTK Renilla, 5.7 μg pBluescript KS, 500 μl OPTIMEM (GIBCO), 18 μl Fugene 6 30′ RT
The transfection mixture is added to the plated cells. The plates are incubated over night at 37° C. in a humidified atmosphere of 5% CO2 in air
A 96 wells plate containing 100 μl of culture medium per well is prepared
Negative control (vehicle): 2 μl of DMSO is added to the 100 μl (in triplicate).
Compound: 2 μl of Hit compound stock dilution are added to the 100 μl (in triplicate).
The transfected cells are trypsinised and ressuspend in 12 mL of culture medium.
100 μl of the dilution are added to each of the 96 wells plate.
The plate is incubated over night at 37° C. in a humidified atmosphere of 5% CO2 in air
Dual-Luciferase™ Reporter Assay System (Promega)
The medium is removed from the plate and the cells washed two times with 100 μl PBS Completely remove the rinse solution before applying PLB reagent. Dispense into each culture well […] of 1×PLB. Place the culture plates on a rocking platform or orbital shaker with gentle
rocking/shaking to ensure complete and even coverage of the cell monolayer with 1×PLB. Rock the culture plates at room temperature for 15 minutes. Transfer 20 μl of the lysate into a white opaque 96 wells plate. Read in a luminometer.
• Inject 50 μl of Luciferase Assay Reagent II wait 5″, read 10″ • Inject 50 μl of Stop & Glo® Reagent wait 5″, read 10″ Check RLU Luciferase/RLU Renilla *1000

JNK2, sequence (P45984 whole entry, species assumed): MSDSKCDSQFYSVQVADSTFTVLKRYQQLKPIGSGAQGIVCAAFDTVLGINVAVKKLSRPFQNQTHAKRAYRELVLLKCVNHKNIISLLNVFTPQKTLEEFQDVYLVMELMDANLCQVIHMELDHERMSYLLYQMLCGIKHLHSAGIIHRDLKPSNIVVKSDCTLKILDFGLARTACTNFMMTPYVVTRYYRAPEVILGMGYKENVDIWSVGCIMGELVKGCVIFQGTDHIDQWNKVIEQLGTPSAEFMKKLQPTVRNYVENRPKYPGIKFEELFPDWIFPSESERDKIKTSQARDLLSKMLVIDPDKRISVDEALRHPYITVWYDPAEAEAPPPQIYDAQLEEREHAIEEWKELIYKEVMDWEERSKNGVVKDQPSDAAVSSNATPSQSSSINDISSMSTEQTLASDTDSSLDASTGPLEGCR

melting point [°C] | IC50 (JNK2) [nM] | IC50 (JNK3) [nM] | IC50 (p38) [nM] | IC50 (ERK2) [nM] | SMILES | inhibition at 3 µM [1] [%] | inhibition at 10 µM (Hlr c-Jun HeLa cells) [%]
198 to 199 |  |  |  |  | O=C(NCc1ccc(S(=O)(=O)N2CCC(Nc3cccc(S(=O)(=O)C(F)(F)F)c3)CC2)s1)c1ccc(Cl)cc1 [Example 2, 4-Chloro-N-{5-[4-(3-Trifluoromethanesulfonyl-phenylamino)-piperidine-1-sulfonyl]-thiophen-2-ylmethyl}-benzamide] |  | 
169 to 170 | 310 | 110 | > 30000 | > 30000 | CCCc1cccc(NC2CCN(S(=O)(=O)c3ccc(CNC(=O)c4ccc(Cl)cc4)s3)CC2)c1 [Example 110, 4-chloro-N-{[5-({4-[3-propylanilino]piperidin-1-yl}sulfonyl)thien-2-yl]methyl}benzamide] | > 30 | > 30
